Format in all cases: cell-based
One assay concerns ZIKV BeH8 strain. The experiment in a line: Antiviral activity against the Zika virus in HeLa cells. The settings on record: for concentration at which infection of the Hela cells by the strain ZIKV BeH-8 is prevented: 24 h, qRT-PCR; for concentration at which infection of the Hela cells by the strain ZIKV BeH-8 is prevented / IC50: HeLa cells; for IC50: BeH-8 strain, MOI=0.1, 24 h; for active on infectious model ZIKV: summary table. (In general: In qPCR the cycle at which signal appears reflects the starting amount.)

In another assay the target is Axl (Homo sapiens (Human), UniProt P30530). The experiment in a line: Inhibition of the phosphorylation of the kinase Axl in cellulo (immunoblot, Y779). The settings on record: A549 cells, 2.5 μM compound 1 hour, 1 mM pervanadate 5 min. The method, then: FIG. 1: […] The A549 cells were preincubated for 1 hour with 2.5 μM of compounds targeting Axl. They were then stimulated for 5 min with 1 mM of pervanadate. The evaluation of the inhibition of the phosphorylation of the […] residue of the intracytoplasmic domain of Axl kinase is carried out by immunoblot using the antibody R&D Systems (AF2228) and measuring the intensity of the signals by densitometry (Image J) (P-Axl/Axl ratio). The A549 cells were preincubated for 1 hour with 2.5 μM of compound 1, 2, or 3. They were then stimulated for 5 min with 1 mM pervanadate, a compound known to activate the kinase Axl by phosphorylation. The inhibition of the phosphorylation of the […] residue of the intracytoplasmic domain of Axl is visualized by immunoblot using the antibody R&D Systems (AF2228).
For orientation: In western blotting, separated proteins are transferred to a membrane and probed.

The test system of a further assay is SARS-COV-2. The experiment in a line: Anti-SARS-COV-2 activity in primary human bronchial epithelium model (MucilAir). The settings on record: 1.25 μM, 24 hours, qRT-PCR.
The next assay relates to WNV virus, Kunjin strain. The experiment in a line: Antiviral activity against the WNV virus, Kunjin strain in HeLa cells. The settings on record: summary table.
The subject of assay [1] is SARS-COV-2 virus, BetaCoV/France/IDF0371/2020. The experiment in a line: Anti-SARS-COV-2 activity in A549-ACE2 cells. The settings on record: MOI=0.01, 24 hours, qRT-PCR; for infection of the A549-ACE2 cells by the SARS-COV-2 virus: 1.25 μM; for IC50: A549-ACE2 cells.

Chain of Axl (P30530 26-894): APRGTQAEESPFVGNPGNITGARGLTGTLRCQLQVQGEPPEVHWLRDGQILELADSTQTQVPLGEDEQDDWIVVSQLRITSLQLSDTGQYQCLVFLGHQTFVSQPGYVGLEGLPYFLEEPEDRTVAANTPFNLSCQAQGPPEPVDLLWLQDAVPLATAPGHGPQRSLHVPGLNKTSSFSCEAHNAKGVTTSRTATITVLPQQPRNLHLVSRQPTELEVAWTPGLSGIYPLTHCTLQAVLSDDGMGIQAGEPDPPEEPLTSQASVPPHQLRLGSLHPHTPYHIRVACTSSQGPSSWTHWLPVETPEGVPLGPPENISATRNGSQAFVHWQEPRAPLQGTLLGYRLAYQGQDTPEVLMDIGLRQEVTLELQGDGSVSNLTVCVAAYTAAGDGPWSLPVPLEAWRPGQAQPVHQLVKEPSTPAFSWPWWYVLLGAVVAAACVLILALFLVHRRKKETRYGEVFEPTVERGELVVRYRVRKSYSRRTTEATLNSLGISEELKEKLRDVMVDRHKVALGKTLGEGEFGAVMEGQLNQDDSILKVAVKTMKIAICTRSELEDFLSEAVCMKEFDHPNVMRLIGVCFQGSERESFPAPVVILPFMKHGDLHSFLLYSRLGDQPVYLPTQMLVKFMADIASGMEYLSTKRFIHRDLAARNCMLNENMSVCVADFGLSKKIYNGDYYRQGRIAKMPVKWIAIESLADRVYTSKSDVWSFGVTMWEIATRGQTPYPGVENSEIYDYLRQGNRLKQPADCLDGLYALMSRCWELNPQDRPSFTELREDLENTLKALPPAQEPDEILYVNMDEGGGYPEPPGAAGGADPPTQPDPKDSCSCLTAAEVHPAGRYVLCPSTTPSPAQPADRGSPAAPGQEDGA

On to `CN1CCN(Cc2cccc(-c3cnc4[nH]cc(-c5cc(CNCCc6ccc(O)cc6)ccc5F)c4c3)c2)CC1` [Compound 1], for which, in the assay on ZIKV BeH8 strain, the “concentration at which infection of the Hela cells by the strain ZIKV BeH-8 is prevented” value (from here on “concentration at which infection”) is reported as “greater than or equal to 150 nM”, the half-inhibitory concentration (IC50) (usually the concentration that inhibits the measured activity by half) is 198 nM and the “active on infectious model ZIKV” value is “ACTIVE”. For the same compound, the “activation (phosphorylation) of the Y779 residue of AxL compared to the control (DMSO)” value (“activation … compared to the control (DMSO)” for short) on Axl is recorded as “much lower or even zero activation”. Besides, the “infection of the primary bronchial epithelium by SARS-COV-2” value in the assay on SARS-COV-2 is on record as “inhibits the infection”. Moreover, in the assay with WNV virus, Kunjin strain, the “active on infectious model KUNV” value is given as “ACTIVE”. Moreover, in assay [1], the “infection of the A549-ACE2 cells by the SARS-COV-2 virus” value (from here on “infection of the A549-ACE2 cells”) is on record as “prevent the infection” and the midpoint of inhibition, the IC50, lay at 19 nM.
For `CN1CCN(Cc2cccc(-c3cnc4[nH]cc(-c5cc(CNCc6ccccc6)ccc5F)c4c3)c2)CC1` [Compound 2], in the assay on ZIKV BeH8 strain, the “concentration at which infection” value is reported as “greater than or equal to 150 nM”, inhibition was half-maximal at 25 nM (IC50) and the “active on infectious model ZIKV” value is recorded as “ACTIVE”. Further, the “activation … compared to the control (DMSO)” value on Axl is on record as “much lower or even zero activation”. Also, in the assay on WNV virus, Kunjin strain, the “active on infectious model KUNV” value was “ACTIVE”. In addition, in assay [1], the “infection of the A549-ACE2 cells” value is recorded as “prevent the infection” and the IC50 is 57 nM.
With `CN1CCN(Cc2cccc(-c3cnc4[nH]cc(-c5cc(NC(=O)Nc6ccccc6)ccc5F)c4c3)c2)CC1` [Compound 3], in the assay with ZIKV BeH8 strain, the “concentration at which infection” value was “greater than or equal to 150 nM”. In addition, the “activation … compared to the control (DMSO)” value at Axl is listed as “much lower or even zero activation”. Moreover, in assay [1], the “infection of the A549-ACE2 cells” value was “prevent the infection” and the IC50 stood at 38 nM.

Values taken from patent US20240293400A1, “NOVEL AZAINDOLE DERIVATIVES AS ANTIVIRAL AGENTS” (Centre National de la Recherche Scientifique, priority 2021, published 2024).
